Key:
Aurora A kinase = target: T1, Aurora A kinase (Homo sapiens, UniProt O14965); assay: Assay for the inhibiting activity of kinase (Glo Plus / ADP Glo / Caliper), Aurora A; format: biochemical; details: kinase inhibition, incubated at 30° C. for 1 hour
T1 sequence (O14965 1-403): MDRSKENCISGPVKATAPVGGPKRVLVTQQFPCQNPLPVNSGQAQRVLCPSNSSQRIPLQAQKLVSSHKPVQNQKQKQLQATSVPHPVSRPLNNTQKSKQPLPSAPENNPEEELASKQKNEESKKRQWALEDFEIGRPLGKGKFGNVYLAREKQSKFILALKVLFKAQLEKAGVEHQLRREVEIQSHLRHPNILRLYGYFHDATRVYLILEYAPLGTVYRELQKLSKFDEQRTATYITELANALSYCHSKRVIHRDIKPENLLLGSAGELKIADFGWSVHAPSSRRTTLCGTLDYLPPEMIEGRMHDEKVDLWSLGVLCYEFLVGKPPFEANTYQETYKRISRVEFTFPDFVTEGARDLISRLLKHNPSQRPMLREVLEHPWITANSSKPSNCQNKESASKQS
Procedure: (§1) Experimental Reagents: a buffer solution of 25 mM HEPES, 10 mM MgCl2, 0.01% Triton X-100, 100 μg/mL BSA, 2.5 mM DTT, pH=7.4; ATP was available from U.S. Sigma (cat. A7699); Glo Plus Kinase Reagent was available from U.S. Promega (cat. V3773); ADP Glo Reagent was available from U.S. Promega (cat. V9102).
(§2) Procedures of the detection experiment for Glo Plus and ADP Glo kinases: the kinase(s), substrate, ATP and the compound(s) to be tested were mixed on a 384-well culture plate, with a total volume of 10 μL of the mixture, […], and then the culture plate was incubated at 30° C. for 1 hour. Test for Glo Plus kinase activity: add 10 μL of Glo Plus kinase per well to the mixture and then incubate at 27° C. for 20 minutes. Test for ADP Glo kinase activity: add 10 μL of ADP Glo per well to the culture plate, and then incubate at 27° C. for 40 minutes. Then a kinase detection reagent (10 μL per well) was added to the culture plate which was incubated at 27° C. for 30 minutes. Read the values from the plate reader to determine inhibition data.
(§3) Biologic testing procedures of Caliper kinase: the kinase, substrate, ATP and the compound to be tested were mixed in a 96-well culture plate, with a total volume of 50 μL of the mixture, and then the culture plate was incubated at 30° C. for 1 hour. Add 20 μL of 35 mM EDTA to the culture plate. A solution of 26 μL of the reaction mixture was transferred to a 384-well culture plate, and read the values on a plate reader to determine inhibition data.

Raf-1 kinase = Raf-1 kinase (Homo sapiens, UniProt P04049); assay: Assay for the inhibiting activity of kinase (Glo Plus / ADP Glo / Caliper), Raf-1; format: biochemical; details: kinase inhibition, incubated at 30° C. for 1 hour
Procedure: as §1, §2, §3

HepG2 = assay: Test for activity of inhibiting tumor cells (CellTiter-Glo cell viability), HepG2; format: cell-based; details: Homo sapiens, half growth inhibition concentration, 72 hours incubation
Source text: (§4) Reagents and consumables: 1. Tumor cells were available from HD Biosciences (Shanghai) Co., Ltd. and detected mycoplasma-free; 2. RPMI 1640 Culture Medium, available from U.S. Invitrogen, Code No.: 31800-022; 3. F12K Culture Medium, available from U.S. Invitrogen, Code No.: 21127-022; 4. DMEM Culture Medium, available from U.S. Invitrogen, Code No.: 12100-046; 5. Fetal bovine serum, available from U.S. Hyclone, Code No.: CH30160.03; 6. Penicillin-Streptomycin liquid, available from U.S. Invitrogen, Code No.: 15140-122; 7. Gemcitabine, available from U.K. Tocris, Code No.: 3259; 8. DMSO, available from U.S. Sigma, Code No.: D4540; 9. 96-well cell culture plate, available from U.S. Corning, Code No.: 3610; 10. CellTiter-Glo Luminescent Cell Viability Assay, available from U.S. Promega, Code No.: G7571; 11. Plate Reader, available from U.S. Perkin Elmer, EnVision Multilabel Plate Reader.
(§5) The cell culture mediums: 1. RPMI 1640 whole cell culture medium: a RPMI 1640 culture medium containing 10% fetal bovine serum and 100 U penicillin and 100 μg/mL streptomycin. 2. F12K whole cell culture medium: a F12K culture medium containing 10% fetal bovine serum and 100 U penicillin and 100 μg/mL streptomycin. 3. DMEM whole cell culture medium: a DMEM culture medium containing 10% fetal bovine serum and 100 U penicillin and 100 μg/mL streptomycin.
Preparation of the compounds: 1. A test compound was formulated into a mother liquor in a concentration of 30 mM, and the mother liquor was divided into aliquots and stored in a refrigerator at −80° C. 2. The mother liquors of the test compounds in a concentration of 30 mM were diluted with DMSO to a series of solutions in gradient concentrations, wherein these gradient concentrations included 25 mM, 5 mM, 1 mM, 200 μM, 40 μM, 8 μM, 1.6 μM, 0.32 μM. […]
(§6) Procedures: 1. […] The cell plate was placed into the plate reader for analysis. Set to read chemiluminescence and record the data.
(§7) Data Process: The data read in each well were required to be converted into cell viability. The cell viability could be calculated by using formulae. […]

K562 = assay: Test for activity of inhibiting tumor cells (CellTiter-Glo cell viability), K562; format: cell-based; details: Homo sapiens, half growth inhibition concentration, 72 hours incubation
Source text: as §4, §5
Preparation of the compounds: 1. A test compound was formulated into a mother liquor in a concentration of 30 mM, and the mother liquor was divided into aliquots and stored in a refrigerator at −80° C. 2. The mother liquors of the test compounds in a concentration of 30 mM were diluted with DMSO to a series of solutions in gradient concentrations, wherein these gradient concentrations included 25 mM, 5 mM, 1 mM, 200 μM, 40 μM, 8 μM, 1.6 μM, 0.32 μM. Then the formulated solutions in gradient concentrations were diluted five times with the whole cell culture mediums, and then the gradient concentrations of the test compounds included 5 mM, 1 mM, 200 μM, 40 μM, 8 μM, 1.6 μM, 0.32 μM, 0.064 μM dissolved in 20% DMSO. 3. Only before the experiments began, the prepared solutions of the test compounds in series of gradient concentrations were diluted one hundred times with the whole cell culture mediums under sterile conditions, wherein these gradient concentrations of the test compounds included 50 μM, 10 μM, 2 μM, 0.4 μM, 0.08 μM, 16 nM, 3.2 nM, 0.64 nM; which were 2× the compound solutions and they could be used to treat the cells. 4. […]
as §6, §7

A549 = assay: Test for activity of inhibiting tumor cells (CellTiter-Glo cell viability), A549; format: cell-based; details: Homo sapiens, half growth inhibition concentration, 72 hours incubation
Source text: as §4
The cell culture mediums: 1. RPMI 1640 whole cell culture medium: a RPMI 1640 culture medium containing 10% fetal bovine serum and 100 U penicillin and 100 μg/mL streptomycin. 2. […]
as §6, §7

Chain of Raf-1 kinase (P04049 whole entry): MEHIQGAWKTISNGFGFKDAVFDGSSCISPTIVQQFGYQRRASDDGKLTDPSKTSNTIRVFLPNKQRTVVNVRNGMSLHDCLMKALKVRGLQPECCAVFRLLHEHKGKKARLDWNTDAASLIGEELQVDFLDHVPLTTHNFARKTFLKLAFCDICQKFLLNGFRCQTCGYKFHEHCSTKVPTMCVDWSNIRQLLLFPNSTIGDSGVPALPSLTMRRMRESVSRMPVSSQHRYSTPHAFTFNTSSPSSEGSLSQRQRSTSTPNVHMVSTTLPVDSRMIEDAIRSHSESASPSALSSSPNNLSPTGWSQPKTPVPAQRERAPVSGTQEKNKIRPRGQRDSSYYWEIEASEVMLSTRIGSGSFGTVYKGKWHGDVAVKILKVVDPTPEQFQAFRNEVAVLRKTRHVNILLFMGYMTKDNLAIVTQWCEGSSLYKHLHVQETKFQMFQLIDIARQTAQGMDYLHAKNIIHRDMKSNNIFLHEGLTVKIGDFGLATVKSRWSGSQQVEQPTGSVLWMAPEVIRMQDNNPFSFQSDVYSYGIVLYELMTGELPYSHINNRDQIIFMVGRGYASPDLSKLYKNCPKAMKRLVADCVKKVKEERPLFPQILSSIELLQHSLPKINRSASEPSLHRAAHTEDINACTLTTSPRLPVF

IC50 (Aurora A kinase) [µM] | IC50 (Raf-1 kinase) [µM] | EC50 (HepG2) [µM] | EC50 (K562) [µM] | EC50 (A549) [µM] | Compound
0.78 | 0.38 | 3.82 | 4 | – | Cc1cc(Nc2nc(Nc3cc(NC(=O)Nc4ccc(Cl)c(C(F)(F)F)c4)ccc3C)ncc2F)n[nH]1 [Compound 2, 1-(4-chloro-3-trifluoromethyl-phenyl)-3-{3-[5-fluoro-4-(5-methyl-1H-pyrazol-3-yl-amino)-pyrimidin-2-yl-amino]-4-methyl-phenyl}-urea]
– | 1.53 | – | – | – | Cc1cc(Nc2nc(Nc3cc(NC(=O)Nc4ccc(Cl)c(C(F)(F)F)c4)ccc3C)ncc2C(F)(F)F)n[nH]1 [Compound 3, 1-(4-chloro-3-trifluoromethyl-phenyl)-3-{4-methyl-3-[4-(5-methyl-1H-pyrazol-3-yl-amino)-5-trifluoromethyl-pyrimidin-2-yl-amino]-phenyl}-urea]
2.68 | – | – | – | – | Cc1cc(Nc2ccnc(Nc3cc(NC(=O)Nc4ccc(Cl)c(C(F)(F)F)c4)ccc3C)n2)n[nH]1 [Compound 4, 1-(4-chloro-3-trifluoromethyl-phenyl)-3-{4-methyl-3-[4-(5-methyl-1H-pyrazol-3-yl-amino)-pyrimidin-2-yl-amino]-phenyl}-urea]
0.14 | 0.25 | 6.98 | 4.87 | – | Cc1cc(Nc2nc(Nc3cc(NC(=O)Nc4ccc(Cl)c(C(F)(F)F)c4)ccc3C)ncc2C)n[nH]1 [Compound 6, 1-(4-chloro-3-trifluoromethyl-phenyl)-3-{4-methyl-3-[5-methyl-4-(5-methyl-1H-pyrazol-3-yl-amino)-pyrimidin-2-yl-amino]-phenyl}-urea]
2.1 | 0.41 | – | 11.9 | – | Cc1cc(Nc2nc(Nc3cc(NC(=O)Nc4ccc(Cl)c(C(F)(F)F)c4)ccc3C)ncc2N)n[nH]1 [Compound 8, 1-(4-chloro-3-trifluoromethyl-phenyl)-3-{4-methyl-3-[5-methyl-4-(5-methyl-1H-pyrazol-3-yl-amino)-5-amino-pyrimidin-2-yl-amino]-phenyl}-urea]
0.34 | 0.24 | 17.7 | 4.8 | 13.3 | COc1cnc(Nc2cc(NC(=O)Nc3ccc(Cl)c(C(F)(F)F)c3)ccc2C)nc1Nc1cc(C)[nH]n1 [Compound 9, 1-(4-chloro-3-trifluoromethyl-phenyl)-3-{3-[5-methoxy-4-(5-methyl-1H-pyrazol-3-yl-amino)-pyrimidin-2-yl-amino]-4-methyl-phenyl}-urea]
– | 2.14 | – | – | – | Cc1cc(Nc2nc(Nc3cc(NC(=O)Nc4ccc(Cl)c(C(F)(F)F)c4)ccc3C)ncc2O)n[nH]1 [Compound 11, 1-(4-chloro-3-trifluoromethyl-phenyl)-3-{3-[5-hydroxy-4-(5-methyl-1H-pyrazol-3-yl-amino)-pyrimidin-2-yl-amino]-4-methyl-phenyl}-urea]

Source: patent publication US9221798B2, “4-substituted-(3-substituted-1H-pyrazole-5-amino)-pyrimidine derivatives having activity of inhibiting protein kinase and use thereof” (Zhejian Hisun Pharmaceutical Co., Ltd., priority 2011, dated 2015)
